Test results taken from patent publication EP0923292B1, “IMPROVED METHOD FOR SYSTEMIC ADMINISTRATION OF 2,4-DIENOIC ACID-TYPE INSECTICIDES TO TERRESTRIAL MAMMALS” (priority 1996, dated 1998).

Experiments:
[1] = (S)-Methoprene concentration in rat blood upon in vivo administration (radioassay/TLC); conditions: average of three animals
[2] = Concentration of (S)-methoprene on dog hair following oral administration (HPLC); type: in vivo, dogs; conditions: oral 50 mg/kg one time on Day 0; for concentration at 17 day / concentration at 21 day / concentration at 1 day / concentration at 3 day / concentration at 5 day / concentration at 7 day / concentration at 10 day / concentration at 14 day / concentration at 28 day: dog, hair, po, 50 mg/kg; for concentration at 1 day: day 1
Excerpt: Twelve random-bred adult dogs of various sex and medium hair coat were selected based on hair coat, health, and individual habits. The twelve dogs were grouped into two groups of six dogs each. Dog weights ranged from 22.5 kg to 35.0 kg, and the various weights and each sex were represented in each group. The dogs received a measured amount of Science Diet maintenance dog food daily and water was available. The two groups of dogs were housed separately. The dogs of Group 1 were not given any treatments, whereas those of Group 2 were each given 50 mg/kg of technical (S)-methoprene one time only at the start of the study (Day 0).
Blood samples were taken periodically by drawing the samples into 10 cc disposable syringes and transferring them to labeled 5 mL heparinized EDTA vacutainers treated with […] of paraoxon solution at a concentration of 1 x 10^-2 M. The blood samples were frozen until ready for analysis. Hair samples were clipped from the dogs on the same days that blood samples were taken, then placed in labeled freezer jars with aluminum foil seals, and frozen.
To analyze the dog hair, a known weight (4-8 g) of each dog hair sample was extracted in hexane, the extract evaporated and the residue reconstituted in 2 mL of hexane. One mL of the extract was cleaned by solid-phase extraction using a 3 cc/500 mg silica cartridge. The (S)-methoprene was then eluted from the cartridge with 5% ethyl acetate/hexane. The residue was reconstituted in 1 mL acetonitrile and analyzed by reversed-phase high-pressure liquid chromatography (HPLC) on a C18 column (250 x 4.6 mm, 10-micron diameter) using diode array detection at a wavelength of 264 nm, with a mobile phase of 90:10 methanol:water at 1.5 mUmin and an injection volume of […]. The (S)-methoprene peak eluted at about 5.1 minutes. The concentration of (S)-methoprene was calculated based on a calibration curve generated by concurrently running a series of standards. The limit of quantitation was about 20 ppb.

SMILES: COC(C)(C)CCC[C@H](C)C/C=C/C(C)=C/C(=O)OC(C)C [(S)-Methoprene, 1-isopropyl (E,E)-11-methoxy-3,7,11-trimethyl dodecadi-2,4-enoate]
- (S)-Methoprene Concentration in Blood ([1]; Group A 10 mg/kg I.V., 0.5 hours): 0.703 ± 0.307 ppm
- (S)-Methoprene Concentration in Blood ([1]; Group A 10 mg/kg I.V., 1 hour): 0.345 ± 0.107 ppm
- (S)-Methoprene Concentration in Blood ([1]; Group A 10 mg/kg I.V., 2 hours): 0.113 ± 0.028 ppm
- (S)-Methoprene Concentration in Blood ([1]; Group A 10 mg/kg I.V., 3 hours): 0.079 ± 0.002 ppm
- (S)-Methoprene Concentration in Blood ([1]; Group A 10 mg/kg I.V., 4 hours): 0.066 ± 0.028 ppm
- (S)-Methoprene Concentration in Blood ([1]; Group A 10 mg/kg I.V., 5 hours): 0.048 ± 0.001 ppm
- (S)-Methoprene Concentration in Blood ([1]; Group A 10 mg/kg I.V., 6 hours): 0.046 ± 0.027 ppm
- (S)-Methoprene Concentration in Blood ([1]; Group A 10 mg/kg I.V., 7 hours): 0.019 ± 0.008 ppm
- (S)-Methoprene Concentration in Blood ([1]; Group B 10 mg/kg oral, 1 hour): 0.112 ± 0.038 ppm
- (S)-Methoprene Concentration in Blood ([1]; Group B 10 mg/kg oral, 2 hours): 0.264 ± 0.122 ppm
- (S)-Methoprene Concentration in Blood ([1]; Group B 10 mg/kg oral, 3 hours): 0.202 ± 0.065 ppm
- (S)-Methoprene Concentration in Blood ([1]; Group B 10 mg/kg oral, 4 hours): 0.130 ± 0.066 ppm
- (S)-Methoprene Concentration in Blood ([1]; Group B 10 mg/kg oral, 5 hours): 0.052 ± 0.026 ppm
- (S)-Methoprene Concentration in Blood ([1]; Group B 10 mg/kg oral, 6 hours): 0.045 ± 0.014 ppm
- (S)-Methoprene Concentration in Blood ([1]; Group B 10 mg/kg oral, 7 hours): 0.020 ± 0.005 ppm
- (S)-Methoprene Concentration in Blood ([1]; Group B 10 mg/kg oral, 8 hours): 0.021 ± 0.009 ppm
- (S)-Methoprene Concentration in Blood ([1]; Group C 100 mg/kg oral, 1 hour): 0.165 ± 0.070 ppm
- (S)-Methoprene Concentration in Blood ([1]; Group C 100 mg/kg oral, 2 hours): 3.487 ± 1.324 ppm
- (S)-Methoprene Concentration in Blood ([1]; Group C 100 mg/kg oral, 3 hours): 1.302 ± 0.409 ppm
- (S)-Methoprene Concentration in Blood ([1]; Group C 100 mg/kg oral, 4 hours): 1.504 ± 0.533 ppm
- (S)-Methoprene Concentration in Blood ([1]; Group C 100 mg/kg oral, 5 hours): 0.930 ± 0.449 ppm
- (S)-Methoprene Concentration in Blood ([1]; Group C 100 mg/kg oral, 6 hours): 0.527 ± 0.341 ppm
- (S)-Methoprene Concentration in Blood ([1]; Group C 100 mg/kg oral, 7 hours): 0.608 ± 0.292 ppm
- (S)-Methoprene Concentration in Blood ([1]; Group C 100 mg/kg oral, 8 hours): 0.483 ± 0.221 ppm
- Concentration of (S)-Methoprene on Dog Hair ([2]; Dog #60, day 3): 33,900 ppb
- Concentration of (S)-Methoprene on Dog Hair ([2]; Dog #60, day 5): 12,500 ppb
- Concentration of (S)-Methoprene on Dog Hair ([2]; Dog #60, day 7): 2,400 ppb
- Concentration of (S)-Methoprene on Dog Hair ([2]; Dog #60, day 10): 12,300 ppb
- Concentration of (S)-Methoprene on Dog Hair ([2]; Dog #60, day 14): 5,300 ppb
- Concentration of (S)-Methoprene on Dog Hair ([2]; Dog #60, day 17): 3,600 ppb
- Concentration of (S)-Methoprene on Dog Hair ([2]; Dog #60, day 21): 12,100 ppb
- Concentration of (S)-Methoprene on Dog Hair ([2]; Dog #60, day 28): 5,200 ppb
- concentration at 17 day ([2]; Dog #98, day 17): 345 ng/g
- concentration at 17 day ([2]; Dog #528, day 17): 137 ng/g
- concentration at 21 day ([2]; Dog #528, day 21): 31.2 ng/g
- concentration at 17 day ([2]; Dog #529, day 17): 39.7 ng/g
- concentration at 21 day ([2]; Dog #529, day 21): 93.5 ng/g
- concentration at 17 day ([2]; Dog #532, day 17): 331 ng/g
- concentration at 17 day ([2]; Dog #535, day 17): 1090 ng/g
- concentration at 1 day ([2]; random-bred, Dog #60): 6000 ng/g
- concentration at 1 day ([2]; random-bred, Dog #98): 47.4 ng/g
- concentration at 3 day ([2]; random-bred, Dog #98, day 3): 125 ng/g
- concentration at 5 day ([2]; random-bred, Dog #98, day 5): 161 ng/g
- concentration at 7 day ([2]; random-bred, Dog #98, day 7): 126 ng/g
- concentration at 10 day ([2]; random-bred, Dog #98, day 10): 167 ng/g
- concentration at 14 day ([2]; random-bred, Dog #98, day 14): 200 ng/g
- concentration at 21 day ([2]; random-bred, Dog #98, day 21): 231 ng/g
- concentration at 28 day ([2]; random-bred, Dog #98, day 28): 287 ng/g
- concentration at 1 day ([2]; random-bred, Dog #528): 76.6 ng/g
- concentration at 3 day ([2]; random-bred, Dog #528, day 3): 199 ng/g
- concentration at 5 day ([2]; random-bred, Dog #528, day 5): 114 ng/g
- concentration at 7 day ([2]; random-bred, Dog #528, day 7): 150 ng/g
- concentration at 10 day ([2]; random-bred, Dog #528, day 10): 126 ng/g
- concentration at 14 day ([2]; random-bred, Dog #528, day 14): 103 ng/g
- concentration at 28 day ([2]; random-bred, Dog #528, day 28): 47.2 ng/g
- concentration at 1 day ([2]; random-bred, Dog #529): 86.6 ng/g
- concentration at 3 day ([2]; random-bred, Dog #529, day 3): 82.2 ng/g
- concentration at 5 day ([2]; random-bred, Dog #529, day 5): 58.3 ng/g
- concentration at 7 day ([2]; random-bred, Dog #529, day 7): 34.5 ng/g
- concentration at 10 day ([2]; random-bred, Dog #529, day 10): 60.5 ng/g
- concentration at 14 day ([2]; random-bred, Dog #529, day 14): 85.5 ng/g
- concentration at 28 day ([2]; random-bred, Dog #529, day 28): 106 ng/g
- concentration at 3 day ([2]; random-bred, Dog #532, day 3): 62.4 ng/g
- concentration at 5 day ([2]; random-bred, Dog #532, day 5): 98.6 ng/g
- concentration at 7 day ([2]; random-bred, Dog #532, day 7): 117 ng/g
- concentration at 10 day ([2]; random-bred, Dog #532, day 10): 255 ng/g
- concentration at 14 day ([2]; random-bred, Dog #532, day 14): 350 ng/g
- concentration at 21 day ([2]; random-bred, Dog #532, day 21): 342 ng/g
- concentration at 28 day ([2]; random-bred, Dog #532, day 28): 230 ng/g
- concentration at 1 day ([2]; random-bred, Dog #535): 49.3 ng/g
- concentration at 3 day ([2]; random-bred, Dog #535, day 3): 424 ng/g
- concentration at 5 day ([2]; random-bred, Dog #535, day 5): 276 ng/g
- concentration at 7 day ([2]; random-bred, Dog #535, day 7): 294 ng/g
- concentration at 10 day ([2]; random-bred, Dog #535, day 10): 681 ng/g
- concentration at 14 day ([2]; random-bred, Dog #535, day 14): 800 ng/g
- concentration at 21 day ([2]; random-bred, Dog #535, day 21): 675 ng/g
- concentration at 28 day ([2]; random-bred, Dog #535, day 28): 461 ng/g
